From ChEMBL document CHEMBL4145636, “Izenamides A and B, Statine-Containing Depsipeptides, and an Analogue from a Marine Cyanobacterium” (J Nat Prod, 2018)
pIC50: −log10 of the molar value. Active and inactive are the calls of the source. The rule behind the calls is not given here.

Tests used:
[1] = system: HL-60; test: Growth inhibition of human HL60 cells up to 10 uM after 72 hrs by MTT assay; assay type: functional, cell-based
[2] = system: HeLa; test: Growth inhibition of human HeLa cells up to 10 uM after 72 hrs by MTT assay; assay type: functional, cell-based
[3] = system: MCF7; test: Growth inhibition of human MCF7 cells up to 10 uM after 72 hrs by MTT assay; assay type: functional, cell-based
[4] = molecular target: Cathepsin D (Homo sapiens, UniProt P07339); test: Inhibition of human cathepsin D using GKPILFFRLK(DNP)-D-RNH2) labeled MCA as substrate preincubated for 10 mins followed by substrate addition measured after 1 to 2 hrs by fluorometric method
Sequence of Cathepsin D (P07339 65-162 limits assumed): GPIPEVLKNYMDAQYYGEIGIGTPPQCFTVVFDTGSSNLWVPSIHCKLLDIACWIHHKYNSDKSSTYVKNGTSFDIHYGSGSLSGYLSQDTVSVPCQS
Sequence of Cathepsin D (P07339 169-412 limits assumed): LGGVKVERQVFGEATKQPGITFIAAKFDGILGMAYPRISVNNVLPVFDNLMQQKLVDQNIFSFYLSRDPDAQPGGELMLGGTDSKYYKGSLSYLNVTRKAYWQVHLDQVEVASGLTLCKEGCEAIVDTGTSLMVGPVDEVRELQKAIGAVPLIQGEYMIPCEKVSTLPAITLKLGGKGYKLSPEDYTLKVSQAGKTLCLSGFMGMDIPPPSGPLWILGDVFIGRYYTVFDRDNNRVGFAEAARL

Row | pIC50 [4] | Compound | growth inhibition (GI) [1] | growth inhibition (GI) [2] | growth inhibition (GI) [3]
1 | 6.42 | CC[C@H](C)[C@H](NC(=O)C[C@H](O)[C@H](CC(C)C)NC(=O)[C@H](OC(=O)[C@@H](O)C(C)C)C(C)C)C(=O)N[C@@H](C)C(=O)N(C)[C@H](Cc1ccccc1)C(=O)N1CCC[C@H]1C(=O)OC | inactive | inactive | inactive
2 | < 5.00 | CC[C@H](C)[C@H](NC(=O)[C@H](OC(=O)[C@@H](O)C(C)C)[C@@H](C)CC)C(=O)NCC(=O)N(C)[C@H](Cc1ccccc1)C(=O)N1CCC[C@H]1C(=O)OC | inactive | inactive | inactive
3 | 6.57 | CC[C@H](C)[C@H](NC(=O)C[C@H](O)[C@H](CC(C)C)NC(=O)[C@H](OC(=O)[C@@H](O)C(C)C)[C@@H](C)CC)C(=O)N[C@@H](C)C(=O)N(C)[C@H](Cc1ccccc1)C(=O)N1CCC[C@H]1C(=O)OC | inactive | inactive | inactive
